Laboratory results: US9790169B2, “IDO inhibitors” (BRISTOL-MYERS SQUIBB COMPANY, priority 2015, dated 2017)

Target: human IDO1 (Homo sapiens, UniProt P14902)
Test: Assessment of human IDO-1 inhibitory activity in Hela cells (Interferon-gamma stimulated HeLa cells, Ehrlich reagent, absorbance 490 nm)
Assay type: cell-based
Set-up: endogenous in cells; host or cells: HeLa cells stimulated with interferon-gamma
Details: Hela Human IDO-1 cellular assay
Method in brief: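 HeLa cells pre-incubated with compound 1 h at 37 °C, then stimulated with human IFN-γ (10 ng/ml final) or murine IFN-γ (5 ng/ml final) for 18 h. Kynurenine read with Ehrlich reagent at 490 nm after TCA (3%) and 50 °C treatment; IC50 normalized to unstimulated (100%) and IFN-γ-only (0%) wells.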

human IDO1, sequence (P14902 whole entry): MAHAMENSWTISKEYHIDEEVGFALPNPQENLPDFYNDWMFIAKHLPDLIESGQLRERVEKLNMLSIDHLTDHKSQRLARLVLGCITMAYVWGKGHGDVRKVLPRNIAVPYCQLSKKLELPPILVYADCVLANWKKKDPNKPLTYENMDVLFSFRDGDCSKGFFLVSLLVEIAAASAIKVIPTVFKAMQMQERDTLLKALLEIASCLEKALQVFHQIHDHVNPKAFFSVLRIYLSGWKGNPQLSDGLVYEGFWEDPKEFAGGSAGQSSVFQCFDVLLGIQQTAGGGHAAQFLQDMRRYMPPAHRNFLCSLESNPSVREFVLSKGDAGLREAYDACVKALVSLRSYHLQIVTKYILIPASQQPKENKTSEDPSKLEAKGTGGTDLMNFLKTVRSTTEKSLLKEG

IC50 [nM]	Compound
> 50	CCC(CC(=O)O)c1ccc(N2CCOC(C)(C)C2)c(NC(=O)Nc2ccc(Cl)cc2F)c1 (single isomer, unassigned) [Example 1322 E1, 3-(3-(3-(4-Chloro-2-fluorophenyl)ureido)-4-(2,2-dimethylmorpholino)phenyl)pentanoic acid]
< 50	CCN(c1ccc([C@H](COC(C)C)CC(=O)O)cc1Nc1ccc(C#N)cc1)C1CCOCC1 (single isomer, unassigned) [Example 329]
< 5	CCN(c1ccc([C@H](COC)CC(=O)O)cc1Nc1ccc(C(F)(F)F)cc1)C1CCOCC1 [Example 401]
> 50	CCOc1ccc(Nc2cc(C(C)CC(=O)O)ccc2N(CC)C2CCOCC2)nn1 (single isomer, unassigned) [Example 624, 3-(3-((6-ethoxypyridazin-3-yl)amino)-4-(ethyl (tetrahydro-2H-pyran-4-yl)amino)phenyl)butanoic acid]
< 5	COCC(CC(=O)O)c1ccc(N(C)C2CCOCC2)c(Nc2ccc(Cl)cc2)c1 (single isomer, unassigned) [Example 884, 3-(3-((4-chlorophenyl)amino)-4-(methyl(tetrahydro-2H-pyran-4-yl)amino)phenyl)-4-methoxybutanoic acid]
< 50	CCCN(c1ccc([C@@H](COC)CC(=O)O)cc1Nc1cnc(OCC)nc1)C1CCOCC1 (single isomer, unassigned) [Example 559]
< 5	CCC(CC(=O)O)c1cc(Nc2ccc(C#N)cn2)c(N(CC)C2CCOCC2)cc1F (single isomer, unassigned) [Example 862, 3-(5-((5-cyanopyridin-2-yl)amino)-4-(ethyl (tetrahydro-2H-pyran-4-yl)amino)-2-fluorophenyl) pentanoic acid]
< 50	CCc1ccc(Nc2cc(C(CC)CC(=O)O)ccc2N2CCOC[C@H]2C(C)C)cc1 (single isomer, unassigned) [Example 890]
> 50	COCC(CC(=O)O)c1ccc(N2C[C@@H]3C[C@H]2CN3C(=O)OC(C)(C)C)c(Nc2ccc(C#N)cc2)c1 (single isomer, unassigned) [Example 451 Diastereomer 2]
< 50	CCCN(c1ccc(C(CC)CC(=O)O)cc1Nc1cnc(OCC)nc1)C1CCS(=O)(=O)CC1 (single isomer, unassigned) [Example 13 Enantiomer 1, 3-(4-((1,1-Dioxidotetrahydro-2h-thiopyran-4-yl)(propyl)amino)-3-((2-ethoxypyrimidin-5-yl)amino)phenyl)pentanoic acid]
< 5	COCC(CC(=O)O)c1ccc(N2CCOC[C@H]2C(C)C)c(Nc2ccc(C#N)cc2)c1 (single isomer, unassigned) [Example 912]
< 50	CCN(c1ccc(C(CC)(CC)CC(=O)O)cc1NC(=O)Nc1ccc(C)cc1)C1CCOCC1 [Example 30, 3-Ethyl-3-(4-(ethyl(tetrahydro-2H-pyran-4-yl)amino)-3-(3-(p-tolyl)ureido)phenyl)pentanoic acid]
< 50	CCN(c1ccc(C(CC(=O)O)C2CC2)cc1Nc1cnc(OC)nc1)C1CCOCC1 (single isomer, unassigned) [Example 35, 3-cyclopropyl-3-(4-(ethyl(tetrahydro-2H-pyran-4-yl)amino)-3-((2-methoxypyrimidin-5-yl)amino)phenyl)propanoic acid]
> 50	COCCN(c1ccc(C(COC)CC(=O)O)cc1NC(=O)Nc1ccc(C)cc1)C1CCOCC1 (single isomer, unassigned) [Example 261 Enantiomer 1, 4-Methoxy-3-(4-((2-methoxyethyl)(tetrahydro-2H-pyran-4-yl)amino)-3-(3-(p-tolyl)ureido)phenyl)butanoic acid]
> 50	CCOc1ncc(Nc2cc([C@H](CC)CC#N)ccc2N(CC)C2CCOCC2)cn1 [Example 1333, (R)-3-(3-((2-Ethoxypyrimidin-5-yl)amino)-4-(ethyl(tetrahydro-2H-pyran-4-yl)amino)phenyl)pentanenitrile]
< 50	CCN(c1ccc([C@H](CC(=O)O)C(F)(F)F)cc1Nc1cnc(OC)nc1)C1CCOCC1 [Example 599, (S)-3-(4-(ethyl(tetrahydro-2H-pyran-4-yl)amino)-3-((2-methoxypyrimidin-5-yl)amino)phenyl)-4,4,4-trifluorobutanoic acid]
> 50	COCC(CC(=O)O)c1ccc(N2CCOC[C@@H]2C(C)C)c(Nc2ccc(Cl)cc2)c1 (single isomer, unassigned) [Example 934]
< 5	CCCN(c1ccc([C@H](COC)CC(=O)O)cc1Nc1ccc(Cl)cc1)C1CCOCC1 (single isomer, unassigned) [Example 574]
< 50	CCCN(c1ccc([C@@H](COC)CC(=O)O)cc1NC(=O)Nc1ccc(C#N)cc1)C1CCOCC1 (single isomer, unassigned) [Example 567]
< 5	CCOc1ncc(Nc2cc(C(CC)CC(=O)O)c(F)cc2N(CC)C2CCOCC2)cn1 (single isomer, unassigned) [Example 860, 3-(5-((2-ethoxy-pyrimidin-5-yl)amino)-4-(ethyl(tetra-hydro-2H-pyran-4-yl)amino)-2-fluorophenyl) pentanoic acid]
> 50	COCC(CC(=O)O)c1ccc(N2CCOC(C)(C)C2)c(Nc2ccc(Cl)cc2)c1 (single isomer, unassigned) [Example 1315 E1, 3-(3-((4-Chlorophenyl)amino)-4-(2,2-dimethylmorpholino)phenyl)-4-methoxybutanoic acid]
> 50	CCN(c1ccc([C@@H](COC)CC(=O)O)cc1Nc1cccc(OC(F)(F)C(F)F)c1)C1CCOCC1 (single isomer, unassigned) [Example 360]
> 50	CCN(c1c(F)cc(C(COC)CC(=O)O)cc1NC(=O)Nc1ccc(Cl)cc1F)C1CCOCC1 (single isomer, unassigned) [Example 919, 3-(3-(3-(4-Chloro-2-fluorophenyl)ureido)-4-(ethyl(tetrahydro-2H-pyran-4-yl)amino)-5-fluorophenyl)-4-methoxybutanoic acid]
< 50	CCN(c1ccc(C(COC)CC(=O)O)cc1Nc1ccc(F)cc1)C1CCS(=O)(=O)CC1 (single isomer, unassigned) [Example 172, 3-(4-((1,1-dioxidotetrahydro-2H-thiopyran-4-yl)(ethyl)amino)-3-((4-fluorophenyl)amino)phenyl)-4-methoxybutanoic acid]
< 50	COCC(CC(=O)O)c1ccc(N2C[C@@H]3C[C@H]2CN3C(=O)OC(C)(C)C)c(Nc2ccc(C#N)cc2)c1 (single isomer, unassigned) [Example 451 Diastereomer 1]
> 50	COCCN(c1ccc(C(C)(C)CC(=O)O)cc1NC(=O)Nc1ccc(C)cc1)C1CCOCC1 [Example 18, 3-(4-((2-Methoxyethyl)(tetrahydro-2H-pyran-4-yl)amino)-3-(3-(p-tolyl)ureido)phenyl)-3-methylbutanoic acid]

Compound	IC50 [nM]
CCOc1ncc(Nc2cc(C(CC)CC(=O)O)ccc2N(CC)C2CCN(Cc3ccccc3)CC2)cn1 (single isomer, unassigned) [Example 939, 3-(4-((1-Benzylpiperidin-4-yl)(ethyl)amino)-3-((2-ethoxypyrimidin-5-yl)amino)phenyl)pentanoic acid]	< 50
